Assay results from patent US20220332774A1, “THERAPEUTIC MITOCHONDRIAL PEPTIDES” (priority 2019, published 2022).

How the values were obtained:
3T3-L1 Mouse Adipocytes = test: Free fatty acid levels in cultured 3T3-L1 mouse adipocytes (isoproterenol stimulated); assay type: cell-based; settings: free fatty acid in medium; 5 μM peptide, 20-22 h pre-incubation then 3 h with 0.1 nM isoproterenol; isoproterenol alone = 100%
How it was run: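 3T3-L1 cells differentiated 12 days, insulin withdrawn, then peptides added on day 13 at 5 μM (0.1% DMSO) for 20-22 h at 37° C. After 3 h in assay buffer, medium free fatty acids read at 540 nm. Values expressed as percent of 0.1 nM isoproterenol-alone control.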

C2C12 Cells = test: Glucose utilization in cultured C2C12 cells (myotubes); assay type: cell-based, mouse; settings: glucose concentration in medium relative to untreated cells; 5 μM peptide, 22 h
How it was run: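 Differentiated mouse myotubes (5 days in 2% horse serum) serum-starved 5 h, then treated 22 h at 37 °C with peptide at 5 μM final (0.1% DMSO) in low-glucose (1 g/L) DMEM. Glucose remaining in medium measured colorimetrically at 570 nm. Expressed as percent of untreated control, from 2–3 experiments in triplicate.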

H4-IIE Cells = test: Glucose production in cultured H4-IIE cells; assay type: cell-based, rat; settings: glucose concentration in medium relative to untreated cells; 5 μM peptide, 24 h
How it was run: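 Rat H4-IIE hepatoma cells primed overnight in glucose-free DMEM with 2 mM pyruvate and 10 mM lactate, then treated 24 h at 37 °C with 5 μM peptide (0.1% DMSO; concentration assumes ~2000 Da). Medium glucose measured colorimetrically at 570 nm. Values are percent of untreated-cell glucose production; 0.5-1 nM insulin served as inhibitor reference.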

Substance | Percent of Isoproterenol Control Activity (3T3-L1 Mouse Adipocytes) [%] | Percent of Control Activity (C2C12 Cells) [%] | Percent of Control Activity (H4-IIE Cells) [%]
140 (MTYSPEQSQLQYMHQQTMFNQ) [compound 140] | 100 | 91 | 97
141 (MVEGWLLYLLVSMG) [compound 141] | 96 | 97 | 103
142 (MVEVGYNVVRVV) [compound 142] | 97 | 95 | 103
143 (MVGYLIPVWVLAIVCSDMLKPLS) [compound 143] | 107 | 98 | 111
144 (MVIICFEVSLISHCWVVISRLLM) [compound 144] | 96 | 105 | 105
145 (MVKPHLQNASI) [compound 145] | 94 | 103 | 102
146 (MVLEFGLVGYFLLGGGSGWV) [compound 146] | 97 | 106 | 99
147 (MVLFLLGMVG) [compound 147] | 99 | 107 | 98
148 (MVLNLRVHRLRRTNLQLLHTSPIIP) [compound 148] | 103 | 103 | 109
149 (MVLSSPPIFRMSCSLL) [compound 149] | 100 | 100 | 97
150 (MVLWWFGGSG) [compound 150] | 94 | 102 | 87
151 (MVNGRRTSVGV) [compound 151] | 81 | 95 | 90
152 (MVRMLLVQWW) [compound 152] | 105 | 110 | 89
153 (MVSMMTSMGM) [compound 153] | 93 | 104 | 91
154 (MVSSGDWYSWCE) [compound 154] | 89 | 107 | 98
155 (MVVCMVITFIWSCTKIFGA) [compound 155] | 97 | 107 | 95
156 (MVVHWMSGVGLPWLWGVGV) [compound 156] | 97 | 85 | 106
157 (MVVKGPLSEGGHPWGREGIWL) [compound 157] | 106 | 102 | 109
158 (MWEEAGRMSEGCLG) [compound 158] | 96 | 106 | 127
159 (MWGVSDMLVFLEV) [compound 159] | 100 | 102 | 111
160 (MWLGVGLGWVG) [compound 160] | 102 | 94 | 102
161 (MWLIEEYAMSDF) [compound 161] | 99 | 103 | 114
162 (MWLVLWLWML) [compound 162] | 106 | 103 | 113
163 (MWMPPTLPHIR) [compound 163] | 87 | 105 | 110
164 (MWNDLLQCSEP) [compound 164] | 116 | 102 | 109
165 (MWRVLGALWW) [compound 165] | 108 | 95 | 125
166 (MWSHPSHHSTINITNKWLL) [compound 166] | 96 | 105 | 105
